Data taken from the NIST ThermoML archive (doi:10.1016/j.jct.2018.10.015).

Experiment: xn = mol fraction of the nth substance listed
Settings: 101.3 kPa, Liquid; for viscosity: Concentric cylinders viscometry; for mass density: Vibrating tube method

CCn1cc[n+](C)c1C.O=S(=O)([N-]S(=O)(=O)C(F)(F)F)C(F)(F)F + CCOC(=O)OCC
Settings | mass density, 313.15 K [kg/m3] | mass density, 318.15 K [kg/m3] | mass density, 323.15 K [kg/m3] | mass density, 328.15 K [kg/m3] | viscosity, 313.15 K [mPa·s] | viscosity, 318.15 K [mPa·s] | viscosity, 323.15 K [mPa·s] | viscosity, 328.15 K [mPa·s]
x1 = 0.1731 | 1128.9 | 1123.6 | 1118.3 | 1112.9 | 2.201 | 2.032 | 1.882 | 1.75
x1 = 0.302 | 1221.7 | 1216.5 | 1211.3 | 1206.2 | 4.076 | 3.7 | 3.375 | 3.098
x1 = 0.4028 | 1278.5 | 1273.5 | 1268.4 | 1263.4 | 6.312 | 5.657 | 5.102 | 4.633
x1 = 0.4991 | 1323.7 | 1318.8 | 1313.8 | 1308.9 | 9.113 | 8.07 | 7.196 | 6.468
x1 = 0.6093 | 1367.3 | 1362.4 | 1357.5 | 1352.5 | 13.27 | 11.6 | 10.22 | 9.095
x1 = 0.7039 | 1399.3 | 1394.4 | 1389.6 | 1384.7 | 17.81 | 15.41 | 13.45 | 11.86
x1 = 0.7951 | 1426.2 | 1421.4 | 1416.6 | 1411.8 | 23.1 | 19.8 | 17.14 | 15
x1 = 0.8901 | 1451.4 | 1446.6 | 1441.8 | 1437 | 29.72 | 25.24 | 21.66 | 18.81
x1 = 1 | 1476.7 | 1472 | 1467.2 | 1462.4 | 39.24 | 33 | 28.05 | 24.16
